Source: US7585859B2, “PDE4B inhibitors and uses therefor” (Plexxikon, Inc., priority 2004, dated 2009)
Where two headings read alike, the source gives them in different places.

Assays:
[1] = target: T1, PDE4B: The catalytic domain of human PDE4B from S152-S528 (Homo sapiens, UniProt Q07343); experiment: PDE4 IC50 determination by Scintillation Proximity Assay, PDE4B; assay type: biochemical
T1 construct: His6 (N); thrombin cleavage site (N); made in house; host or cells: E. coli
Outline: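 Scintillation counts reflected [^3H]AMP captured on yttrium silicate SPA beads after enzyme hydrolysed [^3H]cAMP for 30 min at 30°. PDE4B was used at 80 ng/ml and PDE4D at 4 ng/ml. IC50 values came from non-linear regression.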

[2] = tested on: TNF alpha production in LPS-stimulated human blood (Buffy coat); experiment: TNF alpha production by stimulation with LPS in whole blood cultures; assay type: cell-based
Description: Compounds were assayed to generate IC50 numbers as described in Example 54, using the following assay protocol (see Tables 3B and 4B for compounds and results).
Protocol • 1) Obtained 20 mM DMSO aliquots of desired concentrations of compounds (see Tables 3B and 4B for compounds tested and results). Placed 2 μl/well compound in DMSO in the top row of the dilution plate. Added 98 μl of RPMI 1640 media w/2.5% heat inactivated FBS.
2) Made the same media with 2% DMSO in it. Added 60 μl/well to well to make compound titration. Took 30 μl of top row and did a 1:3 dilution down the plate. In column 11 added 4 wells of 50 μM roflumilast and piclamilast. In column 12 added 2% DMSO media.
3) Transfered 20 μl/well into assay plates in duplicate.
4) Obtained human Buffy coat.
5) Diluted blood with 7 volumes of RPMI 1640 media with 1% P/S and 2.5% heat inactivated FBS (a 1:8 dilution)
6) Added160 μl/well of diluted blood to the assay plates.
7) Incubated for 1 hour at 37 degrees 5% CO2
8) Diluted LPS (which was already diluted to 1 mg/ml in PBS, 20 μl aliquots frozen −20 C.) to 10× desired final concentration to make a […] dilution (final concentration should be 100 ng/ml).
9) After 1 hour incubation added 20 μl/well of LPS to plates. A non-LPS treated background was also prepared. Samples were put on the shaker for a one minute 900 rpm.
10) Incubated for 4 hours in incubator.
11) After incubation, put on the shaker for a one minute 900 rpm and spun plate at 100 g for 10 minutes, Decel 5.
12) Carefully pipetted the top 75 μl supernatant into a new plate. Samples were frozen as needed.
Biosource hu-TNF ALPHA ELISA
• REAGENTS USED • DPBS 10×: VWR45000-428 (dilute 1:10 with Millipore Water) • TWEEN 20: FISHER BP337-500 • CAPTURE AND DETECTION ANTIBODIES: R&D DY510E • STREP-HRP: Biosource part SNN4004X • COLOR REAGENTS: R&D DY994 • STOP SOLUTION: from chemistry, or R&D DY999 • 1) Thawed samples to RT as needed. • 2) Added 50 μl Incubation buffer/well. • 3) Added 50 μl blood samples +50 μl Diluent buffer • 4) Incubated 2 hours at room temp. • 5) Washed the plate 4× with 300 μl/well wash buffer with microfill. Wash buffer was DPBS with 0.05% Tween pH 7.2-7.4 • 6) Added 100 μl biotinylated anti-TNFalpha • 7) Incubateed 1 hours at room temp. • 8) Washed the plate 4× with 300 μl/well wash buffer with microfill. Wash buffer was DPBS with 0.05% Tween pH 7.2-7.4 • 9) Added^100 μl Streptavidin-HRP working solution • 10) Incubated for 30 minutes at room temp. • 11) Washed the plate 4× with 300 μl/well wash buffer with microfill. Wash buffer was DPBS with 0.05% Tween pH 7.2-7.4 • 12) Added 100 μl Chromagen • 13) Incubated in the dark for 30 minutes until the blue color developed satisfactorily. • 14) Added 100 μl/well stop solution (2 N H2SO4). • 15) Read plate on WallacVictor at 450 nm for 0.1 sec/well

[3] = Table 1B, Formula I compounds, read-out: IC50 PDE4B
[4] = Homo sapiens, Table 1B, Formula I compounds, read-out: IC50 h TNFα
[5] = human whole blood, LPS 100 ng/ml, read-out: IC 50 vs. indicated assay h TNFα
[6] = second part of Table 2B (2-23 to 2-103), column 3, column is PDE4B in first part, read-out: IC 50 vs. indicated assay h TNFα

T1 sequence (Q07343 with tags, fused parts or gaps): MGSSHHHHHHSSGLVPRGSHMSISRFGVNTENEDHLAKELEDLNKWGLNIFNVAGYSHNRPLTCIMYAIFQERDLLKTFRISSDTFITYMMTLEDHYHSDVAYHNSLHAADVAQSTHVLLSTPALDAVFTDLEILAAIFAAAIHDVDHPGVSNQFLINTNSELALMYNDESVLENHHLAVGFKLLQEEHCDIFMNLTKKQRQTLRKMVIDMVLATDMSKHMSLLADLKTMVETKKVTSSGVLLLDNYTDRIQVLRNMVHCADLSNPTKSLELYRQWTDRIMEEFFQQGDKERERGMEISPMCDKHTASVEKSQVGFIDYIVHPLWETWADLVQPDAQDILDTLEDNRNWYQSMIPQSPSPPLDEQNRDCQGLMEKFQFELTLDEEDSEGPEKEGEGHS

SMILES | IC50 [1, 3] | IC50 [2, 4] | IC50 ([1]; first part of Table 2B (2-1 to 2-22), read-out: IC 50 vs. indicated assay PDE4B) | IC50 [2, 5] | IC50 [1, 6]
N#Cc1c(Nc2ccccc2)sc(C(=O)C2CC2)c1N [Compound 1-28, 4-Amino-5-cyclopropanecarbonyl-2-phenylamino-thiophene-3-carbonitrile] | < 10 µM | < 10 µM | – | – | –
COc1ccc(C(=O)c2sc(Nc3ccccc3)c(C#N)c2N)cc1 [Compound 1-31] | < 10 µM | < 10 µM | – | – | –
CCOC(=O)c1c(NC2CCCC2)sc(C(=O)c2ccc(OC)cc2)c1N [Compound 1-191, 4-Amino-2-cyclopentylamino-5-(4-methoxy-benzoyl)-thiophene-3-carboxylic acid ethyl ester] | < 10 µM | > 10 µM | – | – | –
N#Cc1c(Nc2ccccc2)sc(C(=O)c2cc(-c3ccccc3)no2)c1N [Compound 1-192, 4-Amino-2-phenylamino-5-(3-phenyl-isoxazole-5-carbonyl)-thiophene-3-carbonitrile] | < 10 µM | < 10 µM | – | – | –
CC(C)Nc1sc(C(=O)c2cc(-c3ccccc3)no2)c(N)c1C#N [Compound 1-205, 4-Amino-2-isopropylamino-5-(3-phenyl-isoxazole-5-carbonyl)-thiophene-3-carbonitrile] | < 10 µM | > 10 µM | – | – | –
CC(C)Nc1sc(C(=O)c2cc(-c3ccc(Cl)cc3)no2)c(N)c1C#N [Compound 1-212, 4-Amino-5-[3-(4-chloro-phenyl)-isoxazole-5-carbonyl]-2-isopropylamino-thiophene-3-carbonitrile] | < 10 µM | > 10 µM | – | – | –
CC(C)CNc1sc(C(=O)c2cc(-c3ccccc3)no2)c(N)c1C(N)=O [Compound 1-236, 4-Amino-2-isobutylamino-5-(3-phenyl-isoxazole-5-carbonyl)-thiophene-3-carboxylic acid amide] | < 10 µM | > 10 µM | – | – | –
NC(=O)c1c(NC2CCCC2)sc(C(=O)c2cc(-c3ccccc3)no2)c1N [Compound 1-251, 4-Amino-2-cyclopentylamino-5-(3-phenyl-isoxazole-5-carbonyl)-thiophene-3-carboxylic acid amide] | < 10 µM | > 10 µM | – | – | –
Nc1nc(Nc2ccccc2F)sc1C(=O)c1cc(-c2ccccc2)no1 [Compound 2-6, [4-Amino-2-(2-fluoro-phenylamino)-thiazol-5-yl]-(3-phenyl-isoxazol-5-yl)-methanone] | – | – | < 10 µM | > 10 µM | –
Nc1nc(Nc2ccc(Cl)cc2)sc1C(=O)c1cccc(C(F)(F)F)c1 [Compound 2-23, [4-Amino-2-(4-chloro-phenylamino)-thiazol-5-yl]-(3-trifluoromethyl-phenyl)-methanone] | – | – | – | > 10 µM | < 10 µM
Nc1nc(NC2CCCC2)sc1C(=O)c1cccc(Cl)c1 [Compound 2-80, (4-Amino-2-cyclopentylamino-thiazol-5-yl)-(3-chloro-phenyl)-methanone] | – | – | – | < 10 µM | < 10 µM
